Laboratory results taken from paper PMC5218480 (PLoS ONE, 2017).

Test system: MV-4-11 cells
Test: Gene expression microarray analysis (Affymetrix PrimeView) and GSEA
Format: cell-based, human
Design: RFU PODN (11730768_x_at) / Fold change /veh PODN (11730768_x_at) / RFU LINC00158 (11744669_a_at) / Fold change /veh LINC00158 (11744669_a_at) / RFU DUSP10 (11751237_a_at) / Fold change /veh DUSP10 (11751237_a_at) / RFU ID3 (11757404_x_at) / Fold change /veh ID3 (11757404_x_at) / RFU PLEKHG5 (11737974_s_at) / Fold change /veh PLEKHG5 (11737974_s_at) / RFU LRRC4B (11730491_at) / Fold change /veh LRRC4B (11730491_at) / RFU GIMAP4 (11747438_a_at) / Fold change /veh GIMAP4 (11747438_a_at) / RFU KRT8 (11758183_x_at) / Fold change /veh KRT8 (11758183_x_at) / RFU CNN1 (11734310_a_at) / Fold change /veh CNN1 (11734310_a_at) / RFU VPS37D (11726825_at) / Fold change /veh VPS37D (11726825_at) / RFU C10orf10 (11716522_x_at) / Fold change /veh C10orf10 (11716522_x_at) / RFU KIR2DL2 /// KIR2DL4 /// KIR2DL5A /// KIR2DL5B /// KIR2DS1 /// KIR2DS2 /// KIR2DS3 /// KIR2DS4 /// KIR3DL3 /// KIR3DL3 /// KIR3DS1 (11738374_at) / Fold change /veh KIR2DL2 /// KIR2DL4 /// KIR2DL5A /// KIR2DL5B /// KIR2DS1 /// KIR2DS2 /// KIR2DS3 /// KIR2DS4 /// KIR3DL3 /// KIR3DL3 /// KIR3DS1 (11738374_at) / RFU C1QL1 (11718748_at) / Fold change /veh C1QL1 (11718748_at) / RFU TMPRSS4 (11747572_a_at) / Fold change /veh TMPRSS4 (11747572_a_at) / RFU HAMP (11756126_x_at) / Fold change /veh HAMP (11756126_x_at) / RFU RNFT2 (11725882_a_at) / Fold change /veh RNFT2 (11725882_a_at) / RFU NR4A2 (11747474_a_at) / Fold change /veh NR4A2 (11747474_a_at) / RFU ABCC12 (11746883_a_at) / Fold change /veh ABCC12 (11746883_a_at) / RFU TMEM136 (11760407_x_at) / Fold change /veh TMEM136 (11760407_x_at) / RFU CLDN22 /// WWC2 (11732394_at) / Fold change /veh CLDN22 /// WWC2 (11732394_at) / RFU HLA-DPB1 (11760878_x_at) / Fold change /veh HLA-DPB1 (11760878_x_at) / RFU SPINT1 (11716480_a_at) / Fold change /veh SPINT1 (11716480_a_at) / RFU GAP43 (11754022_s_at) / Fold change /veh GAP43 (11754022_s_at) / RFU A4GNT (11735810_at) / Fold change /veh A4GNT (11735810_at) / RFU PRB3 (11715151_x_at) / Fold change /veh PRB3 (11715151_x_at) / RFU TUBB4B (11761932_at) / Fold change /veh TUBB4B (11761932_at) / RFU CAPN14 (11732068_a_at) / Fold change /veh CAPN14 (11732068_a_at) / RFU TMCC2 (11721928_a_at) / Fold change /veh TMCC2 (11721928_a_at) / RFU IRGQ (11745062_a_at) / Fold change /veh IRGQ (11745062_a_at) / RFU FAM174B (11720279_a_at) / Fold change /veh FAM174B (11720279_a_at) / RFU TMPRSS4 (11748680_a_at) / Fold change /veh TMPRSS4 (11748680_a_at) / RFU FAM212B (11763350_a_at) / Fold change /veh FAM212B (11763350_a_at) / RFU PLEKHG5 (11743358_a_at) / Fold change /veh PLEKHG5 (11743358_a_at) / RFU ZSCAN30 (11745921_a_at) / Fold change /veh ZSCAN30 (11745921_a_at) / RFU CMKLR1 (11741424_a_at) / Fold change /veh CMKLR1 (11741424_a_at) / RFU LOC101060620 /// MAPK8IP1 (11723275_at) / Fold change /veh LOC101060620 /// MAPK8IP1 (11723275_at) / RFU SPTSSB (11747773_x_at) / Fold change /veh SPTSSB (11747773_x_at) / RFU PRSS12 (11739890_at) / Fold change /veh PRSS12 (11739890_at) / RFU BIN1 (11741810_x_at) / Fold change /veh BIN1 (11741810_x_at) / RFU WNT11 (11732464_a_at) / Fold change /veh WNT11 (11732464_a_at) / RFU C10orf10 (11716521_a_at) / Fold change /veh C10orf10 (11716521_a_at) / RFU C5orf56 (11738089_at) / Fold change /veh C5orf56 (11738089_at) / RFU CYB561 (11721691_x_at) / Fold change /veh CYB561 (11721691_x_at) / RFU ANKRD19P (11752326_a_at) / Fold change /veh ANKRD19P (11752326_a_at) / RFU OR2T12 /// OR2T33 /// OR2T8 (11738714_s_at) / Fold change /veh OR2T12 /// OR2T33 /// OR2T8 (11738714_s_at) / RFU VCAN (11748164_a_at) / Fold change /veh VCAN (11748164_a_at) / RFU JSRP1 (11732532_at) / Fold change /veh JSRP1 (11732532_at) / RFU KRTAP10-11 (11738290_x_at) / Fold change /veh KRTAP10-11 (11738290_x_at) / RFU MYO3A (11730013_a_at) / Fold change /veh MYO3A (11730013_a_at) / RFU EBF3 (11725865_a_at) / Fold change /veh EBF3 (11725865_a_at) / RFU CAMK2N1 (11719241_x_at) / Fold change /veh CAMK2N1 (11719241_x_at) / RFU C5orf56 (11738088_a_at) / Fold change /veh C5orf56 (11738088_a_at) / RFU OLFML3 (11715873_a_at) / Fold change /veh OLFML3 (11715873_a_at) / RFU LOC100653217 /// NTM (11731650_a_at) / Fold change /veh LOC100653217 /// NTM (11731650_a_at) / RFU MAPK11 (11762145_a_at) / Fold change /veh MAPK11 (11762145_a_at) / RFU FIZ1 (11724087_x_at) / Fold change /veh FIZ1 (11724087_x_at) / RFU OASL (11726364_x_at) / Fold change /veh OASL (11726364_x_at) / RFU SOX15 (11748057_x_at) / Fold change /veh SOX15 (11748057_x_at) / RFU CD79A (11719716_a_at) / Fold change /veh CD79A (11719716_a_at) / RFU HIST1H1D (11736915_at) / Fold change /veh HIST1H1D (11736915_at) / RFU CASKIN2 (11723855_a_at) / Fold change /veh CASKIN2 (11723855_a_at) / RFU LOC730098 (11760151_x_at) / Fold change /veh LOC730098 (11760151_x_at) / RFU OR4N2 (11742367_at) / Fold change /veh OR4N2 (11742367_at) / RFU PRRT2 (11749266_a_at) / Fold change /veh PRRT2 (11749266_a_at) / RFU SNX32 (11753110_a_at) / Fold change /veh SNX32 (11753110_a_at) / RFU CDHR5 (11726645_a_at) / Fold change /veh CDHR5 (11726645_a_at) / RFU RCAN1 (11760418_a_at) / Fold change /veh RCAN1 (11760418_a_at) / RFU FAM167A (11723789_a_at) / Fold change /veh FAM167A (11723789_a_at) / RFU FAM26E (11764081_at) / Fold change /veh FAM26E (11764081_at) / RFU ISYNA1 (11749810_s_at) / Fold change /veh ISYNA1 (11749810_s_at) / RFU ACY1 (11761880_at) / Fold change /veh ACY1 (11761880_at) / RFU 11764098_at / Fold change /veh 11764098_at / RFU SAMD14 (11745864_x_at) / Fold change /veh SAMD14 (11745864_x_at) / RFU NPB (11741838_a_at) / Fold change /veh NPB (11741838_a_at) / RFU TMPRSS6 (11731388_a_at) / Fold change /veh TMPRSS6 (11731388_a_at) / RFU KRTAP10-2 (11738614_at) / Fold change /veh KRTAP10-2 (11738614_at) / RFU ARHGAP8 /// PRR5-ARHGAP8 (11727945_x_at) / Fold change /veh ARHGAP8 /// PRR5-ARHGAP8 (11727945_x_at) / RFU KRTAP5-7 /// NADSYN1 (11734609_at) / Fold change /veh KRTAP5-7 /// NADSYN1 (11734609_at) / RFU RASL12 (11751679_a_at) / Fold change /veh RASL12 (11751679_a_at) / RFU CDKN2B (11736163_a_at) / Fold change /veh CDKN2B (11736163_a_at) / RFU PRF1 (11729649_at) / Fold change /veh PRF1 (11729649_at) / RFU, ZNF638 /// ZNF638-IT1 / Fold change vs veh, ZNF638 /// ZNF638-IT1 / RFU, PANK3 / Fold change vs veh, PANK3 / RFU, SH3YL1 / Fold change vs veh, SH3YL1 / RFU, ZEB2 / Fold change vs veh, ZEB2 / RFU, NRIP1 / Fold change vs veh, NRIP1 / RFU, PTTG1IP / Fold change vs veh, PTTG1IP / RFU, CAPN2 / Fold change vs veh, CAPN2 / RFU, MED14 / Fold change vs veh, MED14 / RFU, SNORA58 / Fold change vs veh, SNORA58 / RFU, C1orf63 / Fold change vs veh, C1orf63 / RFU, LRRFIP1 / Fold change vs veh, LRRFIP1 / RFU, NDUFAF7 / Fold change vs veh, NDUFAF7 / RFU, SLC12A2 / Fold change vs veh, SLC12A2 / RFU, IBTK / Fold change vs veh, IBTK / RFU, ESF1 / Fold change vs veh, ESF1 / Fold change vs veh, TMEM50B / RFU, TAOK1 / Fold change vs veh, TAOK1 / RFU, ACBD3 / Fold change vs veh, ACBD3 / RFU, TMA16 / Fold change vs veh, TMA16 / RFU, RWDD3 / Fold change vs veh, RWDD3 / RFU, BCAT1 / Fold change vs veh, BCAT1 / RFU, EDEM3 / Fold change vs veh, EDEM3 / RFU, TMEM33 / Fold change vs veh, TMEM33 / RFU, WDR75 / Fold change vs veh, WDR75 / RFU, AHCTF1 / Fold change vs veh, AHCTF1 / RFU, TFRC / Fold change vs veh, TFRC / RFU, ZDHHC17 / Fold change vs veh, ZDHHC17 / RFU, NOM1 / Fold change vs veh, NOM1 / RFU, ARL8B / Fold change vs veh, ARL8B / RFU, ZBTB11 / Fold change vs veh, ZBTB11 / RFU, TAMM41 / Fold change vs veh, TAMM41 / RFU, KIAA1704 /// LOC100996395 / Fold change vs veh, KIAA1704 /// LOC100996395 / RFU, ING1 / Fold change vs veh, ING1 / RFU, TRMT61B / Fold change vs veh, TRMT61B / RFU, FUBP3 / Fold change vs veh, FUBP3 / RFU, TP53 / Fold change vs veh, TP53 / RFU, TNKS2 / Fold change vs veh, TNKS2 / RFU, ZFP14 / Fold change vs veh, ZFP14 / RFU, ACTR2 / Fold change vs veh, ACTR2 / RFU, PPP3R1 / Fold change vs veh, PPP3R1 / RFU, PIK3R1 / Fold change vs veh, PIK3R1 / RFU, HNRNPA1 / Fold change vs veh, HNRNPA1 / RFU, RNF170 / Fold change vs veh, RNF170 / RFU, ZNF28 / Fold change vs veh, ZNF28 / RFU, RNGTT / Fold change vs veh, RNGTT / RFU, OGT / Fold change vs veh, OGT / RFU, BRD1 / Fold change vs veh, BRD1 / RFU, MARS / Fold change vs veh, MARS / RFU, ZNF655 / Fold change vs veh, ZNF655 / RFU, FAHD1 / Fold change vs veh, FAHD1 / RFU, BDP1 / Fold change vs veh, BDP1 / RFU, LRRCC1 / Fold change vs veh, LRRCC1 / RFU, ARID1A / Fold change vs veh, ARID1A / RFU, ZNF146 / Fold change vs veh, ZNF146 / RFU, ZNF330 / Fold change vs veh, ZNF330 / RFU, GPN3 / Fold change vs veh, GPN3 / RFU, C9orf123 / Fold change vs veh, C9orf123 / RFU, N4BP2L2 / Fold change vs veh, N4BP2L2 / RFU, ARFIP1 / Fold change vs veh, ARFIP1 / RFU, FAM179B / Fold change vs veh, FAM179B / RFU, BCL10 / Fold change vs veh, BCL10 / RFU, UHRF1BP1L / Fold change vs veh, UHRF1BP1L / RFU, BET1 / Fold change vs veh, BET1 / RFU, CNOT2 / Fold change vs veh, CNOT2 / RFU, ZNF268 / Fold change vs veh, ZNF268 / Fold change vs veh, ZNF507 / RFU, DGCR2 / Fold change vs veh, DGCR2 / RFU, WDSUB1 / Fold change vs veh, WDSUB1 / Fold change vs veh, HSP90B1 /// MIR3652 / RFU, ADSS / Fold change vs veh, ADSS / RFU, GK / Fold change vs veh, GK / RFU, ZNF148 / Fold change vs veh, ZNF148 / RFU, TAF9 / Fold change vs veh, TAF9 / RFU, SLC1A5 / Fold change vs veh, SLC1A5 / RFU, SLMO2 / Fold change vs veh, SLMO2 / RFU, ABCC4 / Fold change vs veh, ABCC4 / RFU, LOC101060439 /// RAP1B / Fold change vs veh, LOC101060439 /// RAP1B / RFU, RFX7 / Fold change vs veh, RFX7 / RFU, GTPBP10 / Fold change vs veh, GTPBP10 / RFU, CNEP1R1 / Fold change vs veh, CNEP1R1 / RFU, BIVM-ERCC5 /// ERCC5 / Fold change vs veh, BIVM-ERCC5 /// ERCC5 / RFU, ILF3 / Fold change vs veh, ILF3 / RFU 11762660_at / Fold change /veh 11762660_at / RFU VCAN (11757783_s_at) / Fold change /veh VCAN (11757783_s_at) / RFU DDX43 (11728927_at) / Fold change /veh DDX43 (11728927_at) / RFU KRT8 (11758188_x_at) / Fold change /veh KRT8 (11758188_x_at) / RFU NKD1 (11759106_at) / Fold change /veh NKD1 (11759106_at) / RFU SRD5A1 (11742802_a_at) / Fold change /veh SRD5A1 (11742802_a_at) / RFU TPSAB1 /// TPSB2 (11721975_s_at) / Fold change /veh TPSAB1 /// TPSB2 (11721975_s_at) / RFU GSTM3 (11746129_a_at) / Fold change /veh GSTM3 (11746129_a_at) / RFU IL23R (11737362_x_at) / Fold change /veh IL23R (11737362_x_at) / RFU TMEM51 (11727254_a_at) / Fold change /veh TMEM51 (11727254_a_at) / RFU PIWIL2 (11732686_x_at) / Fold change /veh PIWIL2 (11732686_x_at) / RFU ORM1 (11744905_x_at) / Fold change /veh ORM1 (11744905_x_at) / RFU CCDC152 (11743942_at) / Fold change /veh CCDC152 (11743942_at) / RFU ECM1 (11717891_a_at) / Fold change /veh ECM1 (11717891_a_at) / RFU IL23R (11748794_a_at) / Fold change /veh IL23R (11748794_a_at) / RFU TNFAIP8L3 (11732012_x_at) / Fold change /veh TNFAIP8L3 (11732012_x_at) / RFU MBOAT4 (11741988_at) / Fold change /veh MBOAT4 (11741988_at) / RFU 11764193_at / Fold change /veh 11764193_at / RFU TMEM53 (11763286_at) / Fold change /veh TMEM53 (11763286_at) / RFU MAGEB2 (11727129_at) / Fold change /veh MAGEB2 (11727129_at) / RFU TMEM200A (11744735_a_at) / Fold change /veh TMEM200A (11744735_a_at) / RFU CCDC152 (11751479_a_at) / Fold change /veh CCDC152 (11751479_a_at) / RFU FAM211A (11726209_a_at) / Fold change /veh FAM211A (11726209_a_at) / RFU RGS16 (11746705_a_at) / Fold change /veh RGS16 (11746705_a_at) / RFU VCAN (11755009_s_at) / Fold change /veh VCAN (11755009_s_at) / RFU RHOB (11743442_s_at) / Fold change /veh RHOB (11743442_s_at) / RFU RGS16 (11720943_a_at) / Fold change /veh RGS16 (11720943_a_at) / RFU RGS16 (11720944_at) / Fold change /veh RGS16 (11720944_at) / RFU, VPS4B / Fold change vs veh, VPS4B / RFU, CREB1 / Fold change vs veh, CREB1 / RFU, DNAJC13 / Fold change vs veh, DNAJC13 / RFU, GNAQ / Fold change vs veh, GNAQ / RFU, CDK5R1 / Fold change vs veh, CDK5R1 / RFU, ZRANB3 / Fold change vs veh, ZRANB3 / RFU, CUL4A / Fold change vs veh, CUL4A / RFU, CCNY / Fold change vs veh, CCNY / RFU, UFL1 / Fold change vs veh, UFL1 / RFU, COG3 / Fold change vs veh, COG3 / RFU, DIAPH2 / Fold change vs veh, DIAPH2 / RFU, SKA2 / Fold change vs veh, SKA2 / RFU, AFF3 / Fold change vs veh, AFF3 / RFU, LMF1 / Fold change vs veh, LMF1 / RFU, IPO11 / Fold change vs veh, IPO11 / RFU, DFFB / Fold change vs veh, DFFB / RFU, FOXP1 / Fold change vs veh, FOXP1 / RFU, CARD8 / Fold change vs veh, CARD8 / RFU, STRN3 / Fold change vs veh, STRN3 / RFU, ADK / Fold change vs veh, ADK / RFU, RASSF2 / Fold change vs veh, RASSF2 / RFU, WIPF1 / Fold change vs veh, WIPF1 / RFU, LARP1B / Fold change vs veh, LARP1B / RFU, RASA1 / Fold change vs veh, RASA1 / RFU, RB1 / Fold change vs veh, RB1 / RFU, PPFIA1 / Fold change vs veh, PPFIA1 / RFU, MAT2A / Fold change vs veh, MAT2A / RFU, CCT5 / Fold change vs veh, CCT5 / RFU, WDR92 / Fold change vs veh, WDR92 / RFU, CUX1 / Fold change vs veh, CUX1 / RFU, TTC7A / Fold change vs veh, TTC7A / RFU, TMEM135 / Fold change vs veh, TMEM135 / RFU, DEPTOR / Fold change vs veh, DEPTOR / RFU, CPM / Fold change vs veh, CPM / RFU, DNAJB6 / Fold change vs veh, DNAJB6 / RFU, CACNA2D3 / Fold change vs veh, CACNA2D3 / RFU, DTX4 / Fold change vs veh, DTX4 / RFU, TFCP2 / Fold change vs veh, TFCP2 / RFU, GMCL1 /// GMCL1P1 / Fold change vs veh, GMCL1 /// GMCL1P1 / RFU, AEBP2 / Fold change vs veh, AEBP2 / RFU, SNHG1 /// SNORD22 /// SNORD25 /// SNORD26 /// SNORD27 /// SNORD28 /// SNORD29 /// SNORD31 / Fold change vs veh, SNHG1 /// SNORD22 /// SNORD25 /// SNORD26 /// SNORD27 /// SNORD28 /// SNORD29 /// SNORD31 / Fold change (Aza/veh), C12orf56 (ProbeSet 11735607_a_at) / Fold change (ACY-1035/veh), C12orf56 (ProbeSet 11735607_a_at) / Fold change (Aza/veh), FGFR1OP (ProbeSet 11751329_s_at) / Fold change (ACY-1035/veh), FGFR1OP (ProbeSet 11751329_s_at) / Fold change (Aza/veh), VPS36 (ProbeSet 11739960_a_at) / Fold change (ACY-1035/veh), VPS36 (ProbeSet 11739960_a_at) / RFU SYPL1 (11715823_x_at) / Fold change /veh SYPL1 (11715823_x_at) / RFU IGFBP7 (11715501_s_at) / Fold change /veh IGFBP7 (11715501_s_at) / RFU REEP3 (11722064_at) / Fold change /veh REEP3 (11722064_at) / RFU IGLL1 (11728026_x_at) / Fold change /veh IGLL1 (11728026_x_at): dose or concentration left out as unconfirmed
Details: MV-4-11 cells, 48 hours

`Nc1ncn([C@@H]2O[C@H](CO)[C@@H](O)[C@H]2O)c(=O)n1` [azacitidine] was tested, and the “RFU FAM174B (11720279_a_at)” value was 25.09 RFU.
